These results are taken from patent US20080039434A1, “Treatment of Interstitial Cystitis with Vitamin D Compounds” (BioXell S. p.A., priority 2004, published 2008).

Molecules are shown by their SMILES.

Common to all, as to assay type: in vivo, mouse
One assay deals with MCPT2. Put plainly: Taq-Man analysis of bladder mRNA, allergic IC in mice: MCPT2. The conditions noted are these: ovalbumin challenged; 30 and 75 ug/kg oral, dose dependent; pooled samples. As to the method:
(§1) Mice (BALB/c, females 8 weeks old, weight 18-20 g, Charles River, Calco ITA) were sensitized by injecting 10 ug/mouse of chicken ovalbumin from Sigma (OVA, grade V) in the presence of 4 mg of alum (SERVA, Germany) by intraperitoneal injection, once a week for 4 weeks. This induces a sustained level of IgE detectable in serum.
One or two weeks after the last immunization boost, sensitized mice were anesthetized (1.5% Isoflurane) and then trans-urethrally catheterized (24 gauge, ¾ in.; Angiocath, Becton-Dickson). Slight digital pressure was applied the lower abdomen to drain the urine. […]
Total RNA was extracted from one half of bladder by using RNeasy Mini kit (Qiagen), treated with DNase 1 (Qiagen) and reverse transcription performed with Reverse Transcription Reagent (Applied Biosystems) with Random Hexamers (according to the manufacturer's instructions). cDNA was synthesized from 1 ug of RNA. […] Reaction was run on an SDS 7000 (Applied Biosystems) instruments, with the following amplification program: 2′ at 50° C.; 10′ at 95° C.; 15″ at 95° C. and 1′ at 60° C. for 40 cycles; Cycle threshold (Ct) values were exported into Excel Worksheets for analysis and relative quantitations were performed using the ΔCt method. […]

The subject of the next assay is total IgE. Put plainly: Serum total IgE ELISA, allergic IC in mice. The settings on record: 75 ug/kg oral vs vehicle; ovalbumin-sensitized BALB/c mice. Here is the method: as §1
(§2) One or two weeks after the last immunization boost, sensitized mice were anesthetized (1.5% Isoflurane) and then trans-urethrally catheterized (24 gauge, ¾ in.; Angiocath, Becton-Dickson). Slight digital pressure was applied the lower abdomen to drain the urine.
The urinary bladders were instilled with either 150 ul of either saline or OVA alone, (1 mg/150 ul) infused at a slow rate to avoid trauma and vesico-ureteral reflux and repeated twice within a 30-min interval with the syringe kept in place on the catheter for at least 30 min. Intravesical challenge was repeated 7-10 days after the first one with the same procedure. […]
Serum total IgE levels were measured by using a commercially available kit (BD Opteia, Mouse IgE ELISA Set Cat. No. 555248) and following manufacturer's instructions. […] After reaction stopping (H2SO4 1M, 50 ul/well) absorbance at 450 nm was recorded within 30 minutes.
In general terms: ELISA stands for enzyme-linked immunosorbent assay.

For another assay, the system named is MMCP4. Put plainly: Taq-Man analysis of bladder mRNA, allergic IC in mice: MMCP4. The settings on record: ovalbumin challenged; 75 ug/kg oral; individual animals. Here is the method:
as §1, §2
The urinary bladders were instilled with either 150 ul of either saline or OVA alone, (1 mg/150 ul) infused at a slow rate to avoid trauma and vesico-ureteral reflux and repeated twice within a 30-min interval with the syringe kept in place on the catheter for at least 30 min. Intravesical challenge was repeated 7-10 days after the first one with the same procedure.
An ethanol stock solution of Compound B (1 mg/ml) was dissolved in Miglyol vehicle at the appropriate concentration. Control animals received the vehicle containing the same amount of ethanol. Drug (or vehicle) treatment was carried out by daily gavage after weighing the animal. Drug solution was prepared calculating a final volume of 100 ul/10 grams body weight, and treatment was started on the day of the first intravesical ovalbumin challenge, maintained daily, but discontinued over the weekends, for 12 days total treatment. FIG. 7 illustrates the timeline of the experiment.
Total RNA was extracted from one half of bladder by using RNeasy Mini kit (Qiagen), treated with DNase 1 (Qiagen) and reverse transcription performed with Reverse Transcription Reagent (Applied Biosystems) with Random Hexamers (according to the manufacturer's instructions). cDNA was synthesized from 1 ug of RNA. Real-Time PCR was performed in 96-well optical reaction plates (Applied Biosystems). For each sample we amplified both the target gene and the housekeeping gene (HPRT) in different wells (singleplex) and in duplicate. The amplification Master Mix was prepared according to the following protocol (volumes refer to a single well with a final volume of 40 ul/well)): 2× TaqMan® R Universal PCR Master Mix (Applied Biosystems, 4304437): 20 ul; 20× Assay target gene: 2 ul; H2O: 8 ul; cDNA: 10 ul. Reaction was run on an SDS 7000 (Applied Biosystems) instruments, with the following amplification program: 2′ at 50° C.; 10′ at 95° C.; 15″ at 95° C. and 1′ at 60° C. for 40 cycles; Cycle threshold (Ct) values were exported into Excel Worksheets for analysis and relative quantitations were performed using the ΔCt method. All primers used carried the FAM reporter.
Experiments in Example 7 were performed according to the general procedures described previously in Example 6. Mice were challenged with saline (untreated) or ovalbumin (treatment with vehicle or one of Compounds C-I at a dosage indicated in Table 6 in ug/kg).

For the molecule `C=C1/C(=C\C=C2/CCC[C@]3(C)C([C@@H](C)C/C=C/C(O)(CC)CC)=CC[C@@H]23)C[C@@H](O)C[C@@H]1F` [Compound B, 1-alpha-fluoro-25-hydroxy-16,23E-diene-26,27-bishomo-20-epi-cholecalciferol], the “expression of inflammatory marker MCPT2” value in the assay with MCPT2 is listed as “significantly reduces”. In addition, in the assay on total IgE, the “total amount of IgE in serum” value is recorded as “no significant changes”. Besides, the “expression of inflammatory marker MMCP4” value in the assay with MMCP4 was “down-modulates”.
